How the values were obtained:
Type in all cases: in vivo
[1] = test system: Triticum aestivum (TRZAW); assay: Post-emergence herbicidal evaluation, winter wheat; details: rated 2 to 4 weeks after treatment
How it was run: (§1)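 Post-emergence spray; acetone stock diluted in water; dose ≈0.03–0.4 kg/ha per pot; greenhouse, routine care; visual score at 2–4 wk, 0 = untreated-like, 9 = dead.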

[2] = test system: Alopecurus myosuroides (ALOMY); assay: Pre-emergence herbicidal evaluation, black grass
How it was run: (§2)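 Visual injury ratings are taken 2 to 4 weeks after treatment. Before that, seeds are planted in soil-filled pots and sprayed at once with the compound in aqueous acetone, dosed at about 0.0125 to 0.4 kg per hectare, and the pots are grown on greenhouse benches.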

[3] = test system: Abutilon theophrasti (ABUTH); assay: Post-emergence herbicidal evaluation, velvetleaf; details: rated 2 to 4 weeks after treatment
How it was run: as §1

[4] = test system: Ambrosia artemiisifolia (AMBEL); assay: Pre-emergence herbicidal evaluation, ragweed
How it was run: as §2

Setaria viridis (SETVI) [5] = assay: Post-emergence herbicidal evaluation, green foxtail; details: rated 2 to 4 weeks after treatment
How it was run: as §1

[6] = test system: Matricaria inodora (MATIN); assay: Post-emergence herbicidal evaluation, mayweed; details: rated 2 to 4 weeks after treatment
How it was run: as §1

Zea mays (ZEAMX) = assay: Post-emergence herbicidal evaluation, maize; details: rated 2 to 4 weeks after treatment
How it was run: as §1

[7] = test system: Echinochloa grus galli (ECHCG); assay: Pre-emergence herbicidal evaluation, barnyard grass
How it was run: as §2

Setaria viridis (SETVI) [8] = assay: Pre-emergence herbicidal evaluation, green foxtail
How it was run: as §2

Oryza sativum (ORYSA) [9] = assay: Pre-emergence herbicidal evaluation, rice
How it was run: as §2

Stellaria media (STEME) [10] = assay: Pre-emergence herbicidal evaluation, chickweed
How it was run: as §2

Hordeum vulgare (HORVW) [11] = assay: Pre-emergence herbicidal evaluation, winter barley
How it was run: as §2

[12] = test system: Matricaria inodora (MATIN); assay: Pre-emergence herbicidal evaluation, mayweed
How it was run: as §2

Lamium purpureum (LAMPU) [13] = assay: Post-emergence herbicidal evaluation, purple deadnettle; details: rated 2 to 4 weeks after treatment
How it was run: as §1

Stellaria media (STEME) [14] = assay: Post-emergence herbicidal evaluation, chickweed; details: rated 2 to 4 weeks after treatment
How it was run: as §1

Hordeum vulgare (HORVW) [15] = assay: Post-emergence herbicidal evaluation, winter barley; details: rated 2 to 4 weeks after treatment
How it was run: as §1

Galium aparine (GALAP) = assay: Post-emergence herbicidal evaluation, cleaver; details: rated 2 to 4 weeks after treatment
How it was run: as §1

[16] = test system: Triticum aestivum (TRZAW); assay: Pre-emergence herbicidal evaluation, winter wheat
How it was run: as §2

Solanum nigrum (SOLNI) [17] = assay: Post-emergence herbicidal evaluation, black nightshade; details: rated 2 to 4 weeks after treatment
How it was run: as §1

[18] = test system: Abutilon theophrasti (ABUTH); assay: Pre-emergence herbicidal evaluation, velvetleaf
How it was run: as §2

Glycine max (GLXMA) = assay: Pre-emergence herbicidal evaluation, soyabeans
How it was run: as §2

Oryza sativum (ORYSA) [19] = assay: Post-emergence herbicidal evaluation, rice; details: rated 2 to 4 weeks after treatment
How it was run: as §1

Lamium purpureum (LAMPU) [20] = assay: Pre-emergence herbicidal evaluation, purple deadnettle
How it was run: as §2

Solanum nigrum (SOLNI) [21] = assay: Pre-emergence herbicidal evaluation, black nightshade
How it was run: as §2

[22] = test system: Ipomoea hederacea (IPOHE); assay: Pre-emergence herbicidal evaluation, morning glory
How it was run: as §2

[23] = test system: Ambrosia artemiisifolia (AMBEL); assay: Post-emergence herbicidal evaluation, ragweed; details: rated 2 to 4 weeks after treatment
How it was run: as §1

Cc1cc(OC/C=C/C(F)(F)F)nc(Oc2cc(C(F)(F)F)nn2C)c1 [Example 1, (E)-2-(1-Methyl-3-trifluoromethylpyrazol-5-yloxy)-4-methyl-6-(4,4,4-trifluorobut-2-enyloxy)pyridine]
TRZAW rating ([1]; dose 0.03 kg/ha): 2 (2 - Slight effect) | TRZAW rating ([1]; dose 0.1 kg/ha): 3 (3 - Moderate effect) | TRZAW rating ([1]; dose 0.4 kg/ha): 5 (5 - Definite injury) | ALOMY rating ([2]; dose 0.013 kg/ha): 4 (4 - Injury) | ALOMY rating ([2]; dose 0.025 kg/ha): 6 (6 - Herbicidal effect) | ALOMY rating ([2]; dose 0.1 kg/ha): 8 (8 - Approaching complete kill) | ALOMY rating ([2]; dose 0.4 kg/ha): 9 (9 - Complete kill) | ABUTH rating ([3]; dose 0.03 kg/ha): 8 (8 - Approaching complete kill) | ABUTH rating ([3]; dose 0.1 kg/ha): 8 (8 - Approaching complete kill) | ABUTH rating ([3]; dose 0.4 kg/ha): 8 (8 - Approaching complete kill) | AMBEL rating ([4]; dose 0.013 kg/ha): 5 (5 - Definite injury) | AMBEL rating ([4]; dose 0.025 kg/ha): 9 (9 - Complete kill) | AMBEL rating ([4]; dose 0.1 kg/ha): 9 (9 - Complete kill) | AMBEL rating ([4]; dose 0.4 kg/ha): 9 (9 - Complete kill) | SETVI rating (Setaria viridis (SETVI) [5]; dose 0.03 kg/ha): 5 (5 - Definite injury) | SETVI rating (Setaria viridis (SETVI) [5]; dose 0.1 kg/ha): 8 (8 - Approaching complete kill) | SETVI rating (Setaria viridis (SETVI) [5]; dose 0.4 kg/ha): 8 (8 - Approaching complete kill) | MATIN rating ([6]; dose 0.03 kg/ha): 8 (8 - Approaching complete kill) | MATIN rating ([6]; dose 0.1 kg/ha): 8 (8 - Approaching complete kill) | MATIN rating ([6]; dose 0.4 kg/ha): 8 (8 - Approaching complete kill) | ZEAMX rating (Zea mays (ZEAMX); dose 0.03 kg/ha): 2 (2 - Slight effect) | ZEAMX rating (Zea mays (ZEAMX); dose 0.1 kg/ha): 5 (5 - Definite injury) | ZEAMX rating (Zea mays (ZEAMX); dose 0.4 kg/ha): 6 (6 - Herbicidal effect) | ECHCG rating ([7]; dose 0.013 kg/ha): 3 (3 - Moderate effect) | ECHCG rating ([7]; dose 0.025 kg/ha): 5 (5 - Definite injury) | ECHCG rating ([7]; dose 0.1 kg/ha): 7 (7 - Good herbicidal effect) | ECHCG rating ([7]; dose 0.4 kg/ha): 9 (9 - Complete kill) | activity against Setaria (Setaria viridis (SETVI) [8]): superior activity | SETVI rating (Setaria viridis (SETVI) [8]; dose 0.013 kg/ha): 9 (9 - Complete kill) | SETVI rating (Setaria viridis (SETVI) [8]; dose 0.025 kg/ha): 9 (9 - Complete kill) | SETVI rating (Setaria viridis (SETVI) [8]; dose 0.1 kg/ha): 9 (9 - Complete kill) | SETVI rating (Setaria viridis (SETVI) [8]; dose 0.4 kg/ha): 9 (9 - Complete kill) | ORYSA rating (Oryza sativum (ORYSA) [9]; dose 0.013 kg/ha): 2 (2 - Slight effect) | ORYSA rating (Oryza sativum (ORYSA) [9]; dose 0.025 kg/ha): 2 (2 - Slight effect) | ORYSA rating (Oryza sativum (ORYSA) [9]; dose 0.1 kg/ha): 4 (4 - Injury) | ORYSA rating (Oryza sativum (ORYSA) [9]; dose 0.4 kg/ha): 5 (5 - Definite injury) | activity against Stellaria (Stellaria media (STEME) [10]): superior activity | STEME rating (Stellaria media (STEME) [10]; dose 0.013 kg/ha): 5 (5 - Definite injury) | STEME rating (Stellaria media (STEME) [10]; dose 0.025 kg/ha): 9 (9 - Complete kill) | STEME rating (Stellaria media (STEME) [10]; dose 0.1 kg/ha): 9 (9 - Complete kill) | STEME rating (Stellaria media (STEME) [10]; dose 0.4 kg/ha): 9 (9 - Complete kill) | HORVW rating (Hordeum vulgare (HORVW) [11]; dose 0.013 kg/ha): 1 (1 - Trace effect) | HORVW rating (Hordeum vulgare (HORVW) [11]; dose 0.025 kg/ha): 2 (2 - Slight effect) | HORVW rating (Hordeum vulgare (HORVW) [11]; dose 0.1 kg/ha): 5 (5 - Definite injury) | HORVW rating (Hordeum vulgare (HORVW) [11]; dose 0.4 kg/ha): 5 (5 - Definite injury) | MATIN rating ([12]; dose 0.013 kg/ha): 8 (8 - Approaching complete kill) | MATIN rating ([12]; dose 0.025 kg/ha): 9 (9 - Complete kill) | MATIN rating ([12]; dose 0.1 kg/ha): 9 (9 - Complete kill) | MATIN rating ([12]; dose 0.4 kg/ha): 9 (9 - Complete kill) | LAMPU rating (Lamium purpureum (LAMPU) [13]; dose 0.03 kg/ha): 8 (8 - Approaching complete kill) | LAMPU rating (Lamium purpureum (LAMPU) [13]; dose 0.1 kg/ha): 8 (8 - Approaching complete kill) | LAMPU rating (Lamium purpureum (LAMPU) [13]; dose 0.4 kg/ha): 8 (8 - Approaching complete kill) | STEME rating (Stellaria media (STEME) [14]; dose 0.03 kg/ha): 5 (5 - Definite injury) | STEME rating (Stellaria media (STEME) [14]; dose 0.1 kg/ha): 5 (5 - Definite injury) | STEME rating (Stellaria media (STEME) [14]; dose 0.4 kg/ha): 6 (6 - Herbicidal effect) | HORVW rating (Hordeum vulgare (HORVW) [15]; dose 0.03 kg/ha): 3 (3 - Moderate effect) | HORVW rating (Hordeum vulgare (HORVW) [15]; dose 0.1 kg/ha): 5 (5 - Definite injury) | HORVW rating (Hordeum vulgare (HORVW) [15]; dose 0.4 kg/ha): 5 (5 - Definite injury) | GALAP rating (Galium aparine (GALAP); dose 0.03 kg/ha): 7 (7 - Good herbicidal effect) | GALAP rating (Galium aparine (GALAP); dose 0.1 kg/ha): 8 (8 - Approaching complete kill) | GALAP rating (Galium aparine (GALAP); dose 0.4 kg/ha): 8 (8 - Approaching complete kill) | TRZAW rating ([16]; dose 0.013 kg/ha): 1 (1 - Trace effect) | TRZAW rating ([16]; dose 0.025 kg/ha): 1 (1 - Trace effect) | TRZAW rating ([16]; dose 0.1 kg/ha): 3 (3 - Moderate effect) | TRZAW rating ([16]; dose 0.4 kg/ha): 4 (4 - Injury) | SOLNI rating (Solanum nigrum (SOLNI) [17]; dose 0.03 kg/ha): 5 (5 - Definite injury) | SOLNI rating (Solanum nigrum (SOLNI) [17]; dose 0.1 kg/ha): 5 (5 - Definite injury) | SOLNI rating (Solanum nigrum (SOLNI) [17]; dose 0.4 kg/ha): 5 (5 - Definite injury) | activity against Abutilon [18]: superior activity | ABUTH rating ([18]; dose 0.013 kg/ha): 7 (7 - Good herbicidal effect) | ABUTH rating ([18]; dose 0.025 kg/ha): 7 (7 - Good herbicidal effect) | ABUTH rating ([18]; dose 0.1 kg/ha): 8 (8 - Approaching complete kill) | ABUTH rating ([18]; dose 0.4 kg/ha): 9 (9 - Complete kill) | GLXMA rating (Glycine max (GLXMA); dose 0.013 kg/ha): 1 (1 - Trace effect) | GLXMA rating (Glycine max (GLXMA); dose 0.025 kg/ha): 1 (1 - Trace effect) | GLXMA rating (Glycine max (GLXMA); dose 0.1 kg/ha): 4 (4 - Injury) | GLXMA rating (Glycine max (GLXMA); dose 0.4 kg/ha): 5 (5 - Definite injury) | ORYSA rating (Oryza sativum (ORYSA) [19]; dose 0.03 kg/ha): 2 (2 - Slight effect) | ORYSA rating (Oryza sativum (ORYSA) [19]; dose 0.1 kg/ha): 3 (3 - Moderate effect) | ORYSA rating (Oryza sativum (ORYSA) [19]; dose 0.4 kg/ha): 5 (5 - Definite injury) | LAMPU rating (Lamium purpureum (LAMPU) [20]; dose 0.013 kg/ha): 8 (8 - Approaching complete kill) | LAMPU rating (Lamium purpureum (LAMPU) [20]; dose 0.025 kg/ha): 9 (9 - Complete kill) | LAMPU rating (Lamium purpureum (LAMPU) [20]; dose 0.1 kg/ha): 9 (9 - Complete kill) | LAMPU rating (Lamium purpureum (LAMPU) [20]; dose 0.4 kg/ha): 9 (9 - Complete kill) | SOLNI rating (Solanum nigrum (SOLNI) [21]; dose 0.013 kg/ha): 4 (4 - Injury) | SOLNI rating (Solanum nigrum (SOLNI) [21]; dose 0.025 kg/ha): 8 (8 - Approaching complete kill) | SOLNI rating (Solanum nigrum (SOLNI) [21]; dose 0.1 kg/ha): 9 (9 - Complete kill) | SOLNI rating (Solanum nigrum (SOLNI) [21]; dose 0.4 kg/ha): 9 (9 - Complete kill) | IPOHE rating ([22]; dose 0.013 kg/ha): 2 (2 - Slight effect) | IPOHE rating ([22]; dose 0.025 kg/ha): 5 (5 - Definite injury) | IPOHE rating ([22]; dose 0.1 kg/ha): 7 (7 - Good herbicidal effect) | IPOHE rating ([22]; dose 0.4 kg/ha): 9 (9 - Complete kill) | AMBEL rating ([23]; dose 0.03 kg/ha): 6 (6 - Herbicidal effect) | AMBEL rating ([23]; dose 0.1 kg/ha): 7 (7 - Good herbicidal effect) | AMBEL rating ([23]; dose 0.4 kg/ha): 7 (7 - Good herbicidal effect)
